The record followed here is PubChem BioAssay AID1259407 (Chemical Carcinogenesis Research Information System (CCRIS), 2018).

The source made the active and inactive calls. The rule behind the calls is not given here.

The subject of the data set is CCRIS mutagenicity, Ames/micronucleus/aberration tests. Description: CCRIS mutagenicity studies.
The mark [1] stands for this setting: Test System: AMES SALMONELLA TYPHIMURIUM, Strain/Indicator: TA98, Metabolic Activation: NONE, Method: STANDARD PLATE.
[2] abbreviates: Test System: AMES SALMONELLA TYPHIMURIUM, Strain/Indicator: TA100, Metabolic Activation: NONE, Method: PREINCUBATION
Setting [3] is: Test System: AMES SALMONELLA TYPHIMURIUM, Strain/Indicator: TA100, Metabolic Activation: NONE, Method: STANDARD PLATE.
Setting [4] is: Test System: AMES SALMONELLA TYPHIMURIUM, Strain/Indicator: TA1535, Metabolic Activation: NONE, Method: STANDARD PLATE.
Setting [5] is: Test System: AMES SALMONELLA TYPHIMURIUM, Strain/Indicator: TA1538, Metabolic Activation: NONE, Method: STANDARD PLATE.

For `O=C(O)/C=C/c1ccccc1`, the mutagenic call is “inactive; negative” (Test System: AMES SALMONELLA TYPHIMURIUM, Strain/Indicator: TA98, Metabolic Activation: HAMSTER, LIVER, S-9, AROCLOR 1254 (2.5-20%), Method: PREINCUBATION); “inactive; negative” (Test System: AMES SALMONELLA TYPHIMURIUM, Strain/Indicator: TA98, Metabolic Activation: HAMSTER, LIVER, S-9, AROCLOR 1254, Method: STANDARD PLATE); “inactive; negative” under setting [1]; “inactive; negative” (Test System: AMES SALMONELLA TYPHIMURIUM, Strain/Indicator: TA98, Metabolic Activation: RAT, LIVER, S-9, AROCLOR 1254, Method: STANDARD PLATE); “inactive; negative” (Test System: AMES SALMONELLA TYPHIMURIUM, Strain/Indicator: TA100, Metabolic Activation: HAMSTER, LIVER, S-9, AROCLOR 1254 (2.5-20%), Method: PREINCUBATION); “inactive; negative” (Test System: AMES SALMONELLA TYPHIMURIUM, Strain/Indicator: TA100, Metabolic Activation: HAMSTER, LIVER, S-9, AROCLOR 1254, Method: STANDARD PLATE). The mutagenic call reads like this: under setting [2], “inactive; negative”; under setting [3], “inactive; negative”; (Test System: AMES SALMONELLA TYPHIMURIUM, Strain/Indicator: TA100, Metabolic Activation: RAT, LIVER, S-9, AROCLOR 1254, Method: PREINCUBATION) “inactive; negative”; (Test System: AMES SALMONELLA TYPHIMURIUM, Strain/Indicator: TA100, Metabolic Activation: RAT, LIVER, S-9, AROCLOR 1254, Method: STANDARD PLATE) “inactive; negative”; (Test System: AMES SALMONELLA TYPHIMURIUM, Strain/Indicator: TA102, Metabolic Activation: HAMSTER, LIVER, S-9, AROCLOR 1254, Method: PREINCUBATION) “inactive; negative”; (Test System: AMES SALMONELLA TYPHIMURIUM, Strain/Indicator: TA102, Metabolic Activation: NONE, Method: PREINCUBATION) “inactive; negative”. In addition, the mutagenic call was “inactive; negative” (Test System: AMES SALMONELLA TYPHIMURIUM, Strain/Indicator: TA102, Metabolic Activation: RAT, LIVER, S-9, AROCLOR 1254, Method: PREINCUBATION); “inactive; negative” (Test System: AMES SALMONELLA TYPHIMURIUM, Strain/Indicator: TA1535, Metabolic Activation: HAMSTER, LIVER, S-9, AROCLOR 1254, Method: STANDARD PLATE); “inactive; negative” under setting [4]; “inactive; negative” (Test System: AMES SALMONELLA TYPHIMURIUM, Strain/Indicator: TA1535, Metabolic Activation: RAT, LIVER, S-9, AROCLOR 1254, Method: STANDARD PLATE); “inactive; negative” (Test System: AMES SALMONELLA TYPHIMURIUM, Strain/Indicator: TA1537, Metabolic Activation: HAMSTER, LIVER, S-9, AROCLOR 1254, Method: STANDARD PLATE); “inactive; negative” (Test System: AMES SALMONELLA TYPHIMURIUM, Strain/Indicator: TA1537, Metabolic Activation: NONE, Method: STANDARD PLATE). Also, the mutagenic call (Test System: AMES SALMONELLA TYPHIMURIUM, Strain/Indicator: TA1537, Metabolic Activation: RAT, LIVER, S-9, AROCLOR 1254, Method: STANDARD PLATE) was “inactive; negative”; the mutagenic call (Test System: AMES SALMONELLA TYPHIMURIUM, Strain/Indicator: TA1538, Metabolic Activation: HAMSTER, LIVER, S-9, AROCLOR 1254, Method: STANDARD PLATE) was “inactive; negative”; the mutagenic call under setting [5] was “inactive; negative”; the mutagenic call (Test System: AMES SALMONELLA TYPHIMURIUM, Strain/Indicator: TA1538, Metabolic Activation: RAT, LIVER, S-9, AROCLOR 1254, Method: STANDARD PLATE) is “inactive; negative”; the mutagenic call (Test System: MOUSE LYMPHOMA, Strain/Indicator: L5178Y (TK+/TK-), Metabolic Activation: NONE, Method: SUSPENSION/PLATE) is “active; positive. reevaluation of results: equivocal”; the mutagenic call (Test System: Mouse lymphoma, Strain/Indicator: L5178Y (tk+/tk-), Metabolic Activation: Rat, Liver, S-9, Aroclor 1254, Method: Suspension/plate) was “inactive; negative”.

Consider `CC(C)Nc1ccccc1`, for which the mutagenic call is, setting by setting: (Test System: AMES SALMONELLA TYPHIMURIUM, Strain/Indicator: TA98, Metabolic Activation: HAMSTER, LIVER, S-9, AROCLOR 1254 (5 OR 30%), Method: PREINCUBATION) “inactive; negative”; (Test System: AMES SALMONELLA TYPHIMURIUM, Strain/Indicator: TA98, Metabolic Activation: NONE, Method: PREINCUBATION) “inactive; negative”; (Test System: AMES SALMONELLA TYPHIMURIUM, Strain/Indicator: TA98, Metabolic Activation: RAT, LIVER, S-9, AROCLOR 1254 (10%), Method: PREINCUBATION) “inactive; negative”; (Test System: AMES SALMONELLA TYPHIMURIUM, Strain/Indicator: TA100, Metabolic Activation: HAMSTER, LIVER, S-9, AROCLOR 1254 (10%), Method: PREINCUBATION) “inactive; negative”; under setting [2], “inactive; negative”; (Test System: AMES SALMONELLA TYPHIMURIUM, Strain/Indicator: TA100, Metabolic Activation: RAT, LIVER, S-9, AROCLOR 1254 (10%), Method: PREINCUBATION) “inactive; negative”. For the same molecule, the mutagenic call is, setting by setting: (Test System: AMES SALMONELLA TYPHIMURIUM, Strain/Indicator: TA1535, Metabolic Activation: HAMSTER, LIVER, S-9, AROCLOR 1254 (10%), Method: PREINCUBATION) “inactive; negative”; (Test System: AMES SALMONELLA TYPHIMURIUM, Strain/Indicator: TA1535, Metabolic Activation: NONE, Method: PREINCUBATION) “inactive; negative”; (Test System: AMES SALMONELLA TYPHIMURIUM, Strain/Indicator: TA1535, Metabolic Activation: RAT, LIVER, S-9, AROCLOR 1254 (10%), Method: PREINCUBATION) “inactive; negative”; (Test System: AMES SALMONELLA TYPHIMURIUM, Strain/Indicator: TA1537, Metabolic Activation: HAMSTER, LIVER, S-9, AROCLOR 1254 (10%), Method: PREINCUBATION) “inactive; negative”; (Test System: AMES SALMONELLA TYPHIMURIUM, Strain/Indicator: TA1537, Metabolic Activation: NONE, Method: PREINCUBATION) “inactive; negative”; (Test System: AMES SALMONELLA TYPHIMURIUM, Strain/Indicator: TA1537, Metabolic Activation: RAT, LIVER, S-9, AROCLOR 1254 (10%), Method: PREINCUBATION) “inactive; negative”.

With `CC1=C[C@H](O)[C@H]2C[C@@H]1C2(C)C`, the mutagenic call reads like this: under setting [1], “inactive; negative”; (Test System: AMES SALMONELLA TYPHIMURIUM, Strain/Indicator: TA98, Metabolic Activation: RAT, LIVER, S-9, Method: STANDARD PLATE) “inactive; negative”; under setting [3], “inactive; negative”; (Test System: AMES SALMONELLA TYPHIMURIUM, Strain/Indicator: TA100, Metabolic Activation: RAT, LIVER, S-9, Method: STANDARD PLATE) “inactive; negative”; under setting [4], “inactive; negative”; (Test System: AMES SALMONELLA TYPHIMURIUM, Strain/Indicator: TA1535, Metabolic Activation: RAT, LIVER, S-9, Method: STANDARD PLATE) “inactive; negative”. Also, the mutagenic call by setting is: under setting [5], “inactive; negative”; (Test System: AMES SALMONELLA TYPHIMURIUM, Strain/Indicator: TA1538, Metabolic Activation: RAT, LIVER, S-9, Method: STANDARD PLATE) “inactive; negative”.
